Where “and” joins values, the source holds several entries; their conditions need not be identical. Identical values can stand only once. Calls of active or inactive are those of the source. Rule as the data show it, for most assays here: actives have a measured EC50 and inactives only a lower limit.
Experiments:
[1] = Trypanosoma cruzi growth suppression in host cells – NIH3T3 host cells, beta-gal luminescence, confirmation (AID 2044); format: functional, cell-based;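 also: intracellular parasites grown in NIH/3T3 mouse fibroblasts as host cells; luminescent beta-galactosidase reporter signal from transgenic T. cruzi replicating inside host cells; inhibitors lower the luminescence signal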
[2] = NIH3T3 cell viability loss – ATP luminescence, mouse fibroblasts, counter-screen, dose response (AID 2010); format: functional, cell-based;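 also: cells exposed to compound for about 90 hours before reading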
[3] = molecular target: T1, Heat shock factor protein 1 (Mus musculus, UniProt P38532); test: decrease of HSF1-responsive luciferase luminescence – cell-based, NIH3T3, dose retest, confirmation (AID 2382); format: functional;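 also: NIH3T3 fibroblasts with HSF1-driven luciferase reporter stressed by proteasome inhibitor MG132; luminescence from HSF1-driven luciferase expression after 8 hours of MG132 stress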
T1 sequence (P38532 whole entry): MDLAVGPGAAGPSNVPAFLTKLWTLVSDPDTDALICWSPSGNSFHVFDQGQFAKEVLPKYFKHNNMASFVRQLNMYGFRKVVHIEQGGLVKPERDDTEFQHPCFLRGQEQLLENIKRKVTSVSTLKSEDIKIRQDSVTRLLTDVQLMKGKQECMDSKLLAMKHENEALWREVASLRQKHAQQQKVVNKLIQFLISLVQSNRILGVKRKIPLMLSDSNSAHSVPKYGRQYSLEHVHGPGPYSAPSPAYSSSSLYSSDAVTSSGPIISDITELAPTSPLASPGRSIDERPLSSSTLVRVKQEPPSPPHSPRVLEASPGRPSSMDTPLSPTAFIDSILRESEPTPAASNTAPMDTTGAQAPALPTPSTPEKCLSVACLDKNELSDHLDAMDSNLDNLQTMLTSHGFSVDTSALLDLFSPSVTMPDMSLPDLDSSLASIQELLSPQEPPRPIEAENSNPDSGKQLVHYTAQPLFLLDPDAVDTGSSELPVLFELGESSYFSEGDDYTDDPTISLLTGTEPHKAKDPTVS

Cytochrome P450 3A4 = Cytochrome P450 3A4 (Homo sapiens, UniProt P08684);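 also: CYP3A4 tested as one member of a cytochrome P450 panel screen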
Streptococcus = test: GAS UMAA2166 growth inhibition – luminescence, BacTiterGlo, counter-screen for streptokinase expression inhibitor project, dose response (AID 1915); format: functional, organism-based;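 also: potency for reduction of bacterial viability or growth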
[4] = system: Streptococcus sp. 'group A'; test: Streptococcus pyogenes SK(-)GAS viability under kanamycin – luminescence, BacTiterGlo, confirmation, counter-screen for streptokinase expression inhibitor project, dose response (AID 1900); format: functional, organism-based
Streptokinase A = molecular target: T2, Streptokinase A (Streptococcus pyogenes serotype M1, UniProt P10520); test: viability-normalized secreted streptokinase activity reduction – plasminogen activation absorbance, OD405, dose response (AID 1914); format: functional, Streptococcus pyogenes M1 GAS;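 also: secreted streptokinase activity via plasminogen activation per viability signal from cell pellet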
T2 sequence (P10520 whole entry): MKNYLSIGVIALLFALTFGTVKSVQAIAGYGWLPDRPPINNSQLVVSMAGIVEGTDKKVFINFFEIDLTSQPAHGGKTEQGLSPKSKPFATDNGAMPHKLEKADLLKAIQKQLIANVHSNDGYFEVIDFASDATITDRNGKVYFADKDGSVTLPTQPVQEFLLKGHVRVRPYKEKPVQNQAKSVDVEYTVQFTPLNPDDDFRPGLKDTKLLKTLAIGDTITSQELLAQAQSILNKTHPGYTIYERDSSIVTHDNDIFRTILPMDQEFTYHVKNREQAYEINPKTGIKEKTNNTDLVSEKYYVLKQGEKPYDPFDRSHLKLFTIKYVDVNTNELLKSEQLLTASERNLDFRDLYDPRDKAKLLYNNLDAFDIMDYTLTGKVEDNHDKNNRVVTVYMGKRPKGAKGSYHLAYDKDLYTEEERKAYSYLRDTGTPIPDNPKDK

Chain of Cytochrome P450 3A4 (P08684 whole entry): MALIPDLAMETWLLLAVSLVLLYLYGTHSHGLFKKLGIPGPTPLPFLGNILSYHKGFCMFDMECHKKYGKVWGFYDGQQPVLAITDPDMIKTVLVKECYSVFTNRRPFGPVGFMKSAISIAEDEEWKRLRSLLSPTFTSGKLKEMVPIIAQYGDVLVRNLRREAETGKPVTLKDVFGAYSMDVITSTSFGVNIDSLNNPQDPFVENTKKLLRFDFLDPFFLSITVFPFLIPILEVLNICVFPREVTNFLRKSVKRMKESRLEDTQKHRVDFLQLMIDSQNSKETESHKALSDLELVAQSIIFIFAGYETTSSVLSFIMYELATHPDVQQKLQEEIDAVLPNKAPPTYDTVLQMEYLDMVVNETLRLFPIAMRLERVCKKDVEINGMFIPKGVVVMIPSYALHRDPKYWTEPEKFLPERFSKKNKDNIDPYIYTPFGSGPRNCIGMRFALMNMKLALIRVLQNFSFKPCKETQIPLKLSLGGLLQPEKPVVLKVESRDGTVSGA

## CN1CCC(OC(=O)c2cccc(F)c2)CC1
[1]
  EC50: 0.256 µM (active)
[2]
  EC50: > 30 µM (not active)

## CCCCC(=O)Nc1cccc(NC(=O)c2cccc(Br)c2)c1
[3]
  EC50: > 195 µM (not active)

## Cc1cc(C)c2nc(O)c(CN(Cc3ccccc3)C(S)=NCCCN(C)C)cc2c1
[1]
  EC50: 2.19 µM (active)
[2]
  EC50: > 60 µM (not active)

## Cc1noc(C)c1-c1nccc(N(C)C)n1
Cytochrome P450 3A4
  AC50: 31.6 µM (inconclusive)

## CCCCCCCCCC(=O)N/N=C(\C)c1cccnc1
[1]
  EC50: 1.31 µM (active)
[2]
  EC50: > 60 µM (not active)

## Sc1nc(SCc2ccccc2)nc2ccccc12
Streptococcus
  EC50: 64.9 µM (active)
[4]
  EC50: 4.43 µM (active)

## CCOc1ccc(CN2CCCC(CNC(=O)c3ccc(F)cc3)C2)cc1CO (stereo not drawn)
[1]
  EC50: 0.771 µM (active)
[2]
  EC50: > 30 µM (not active)

## CNc1ccnc(-c2ccccc2OC)n1
Cytochrome P450 3A4
  AC50: 31.6 µM (inconclusive)

## Cc1ccc(-c2nn(-c3ccccc3)cc2CN(C)C(=O)CCC(=O)O)cc1C
[3]
  EC50: > 195 µM (not active)

## Cc1nn(-c2ccccc2)c(N)c1C(O)(CSc1nccn1C)C(F)(F)F (stereo not drawn)
[3]
  EC50: > 195 µM (not active)

## O=C(N/N=C/c1cc([N+](=O)[O-])ccc1O)c1ccncc1
[3]
  EC50: 0.66 µM (active)

## O=C(O)c1cc2cc(F)ccc2[nH]1 [5-FLUOROINDOLE-2-CARBOXYLIC ACID]
[3]
  EC50: > 195 µM (not active)

## CN(c1ccccc1)c1nc(N2CCCC2)nc(-n2ccnc2)n1
Streptococcus
  EC50: > 50 µM (not active)
Streptokinase A
  EC50: 75.6 µM (active)
[4]
  EC50: 13.1 µM (active)

## CCOc1cc(/C=N/NC(=O)CN(CCc2ccccc2)S(=O)(=O)c2ccc(NC(C)=O)cc2)ccc1O
[3]
  EC50: > 195 µM (not active)

## C=CCn1c(O)c(N=NC(=S)Nc2ccc(OC)c(Cl)c2)c2ccccc21
[1]
  EC50: 0.586 µM (active)
[2]
  EC50: 3.88 µM (active)

## CN1CCN(c2ncc3nc(-c4cc(F)cc(F)c4)c(=O)n(C4CC4)c3n2)CC1
Cytochrome P450 3A4
  AC50: 39.8 µM (inconclusive)

## CC(=O)[C@@H]1CC[C@@H]2[C@@H]3CC=C4C[C@H](OS(=O)(=O)O)CC[C@@]4(C)[C@H]3CC[C@]21C
Cytochrome P450 3A4
  AC50: 12.6 µM (inconclusive)

## CC1CCN(CCOCCOc2ccc(Cl)cc2Br)CC1
[1]
  EC50: 0.54 µM (active)
[2]
  EC50: 13.8 µM (active)

## C=CCn1c(C)cc(C(=O)CSc2nnc(NC(C)C)s2)c1C
[3]
  EC50: > 195 µM (not active)

## O=C(c1c(F)cccc1F)N1CCN(c2ccccc2F)CC1
[3]
  EC50: > 195 µM (not active)

## CCC1COCCS(=O)(=O)N1Cc1ccccc1C (stereo not drawn)
[3]
  EC50: > 195 µM (not active)

## C[C@H](N)Cc1c[nH]c2ccc(OCc3cccs3)cc12
Cytochrome P450 3A4
  AC50: 15.8 µM (inconclusive) and 12.6 µM (inconclusive)

## Cc1cc(C(C)(C)C)ccc1OCCOCCN1CCCC1
[1]
  EC50: 0.913 µM (active)
[2]
  EC50: > 60 µM (inconclusive)

## COc1ccc(-n2ncc3c(NCCCN4CCOCC4)ncnc32)cc1
[3]
  EC50: 1.52 µM (active)

## Cc1cccc(NC(c2ccc(C)s2)c2ccc3ccc(C)nc3c2O)n1 (stereo not drawn)
Streptococcus
  EC50: 9.05 µM (active)
Streptokinase A
  EC50: 2.96 µM (active)
[4]
  EC50: 2.83 µM (active)

## O=C(CSc1ccccn1)N/N=C/c1cc([N+](=O)[O-])ccc1O
Streptococcus
  EC50: 2.72 µM (active)
[4]
  EC50: 1.01 µM (active)

## COc1ccc(N(C)C(=O)c2oc(=O)c3ccccc3c2-c2ccccc2)c(OC)c1
[3]
  EC50: > 195 µM (not active)

## COc1cccc(/C=N/NC(=O)c2nnn(-c3nonc3N)c2C(C)C)c1OCc1ccc(F)cc1
Streptococcus
  EC50: 43.1 µM (active)
Streptokinase A
  EC50: 62.6 µM (active)
[4]
  EC50: 13 µM (active)

## Cc1cccc(CN2CCCC(C(=O)N3CCc4ccccc4C3)C2)c1 (stereo not drawn)
[1]
  EC50: 0.214 µM (active)
[2]
  EC50: > 60 µM (not active)

## CCC(C)n1c(SC(C)C#N)nc2ccccc2c1=O (stereo not drawn)
[3]
  EC50: > 195 µM (not active)

## O=C1[C@H]2[C@H]3[C@H](O)[C@H](O)C/C(=N/OC[C@@H](O)COCc4ccco4)[C@H]3CC[C@@H]2C(=O)N1c1cccc(Oc2ccccc2)c1
Cytochrome P450 3A4
  AC50: 3.16 µM (inconclusive)

## COC(=O)C(Cc1cnc(Cl)s1)(C(=O)OC)c1ccc([N+](=O)[O-])cc1[N+](=O)[O-]
[1]
  EC50: 1.2 µM (active)
[2]
  EC50: > 60 µM (not active)

## Cc1ccsc1C(=O)OCC(=O)c1cc2ccccc2o1
Streptococcus
  EC50: > 150 µM (not active)
Streptokinase A
  EC50: > 150 µM (not active)
[4]
  EC50: > 150 µM (not active)

## CO[C@H]1COC(=O)CCC[C@@H](C)[C@H](OC)COC(=O)[C@H]2CCCN2C(=O)C/C=C\[C@@H]1C
Cytochrome P450 3A4
  AC50: 5.01 µM (inconclusive)

## Cc1ccccc1C(=O)OC1CCN(C)CC1
[1]
  EC50: 0.115 µM (active)
[2]
  EC50: 42.4 µM (active)

## CCOC(=O)c1[nH]c(C)c(C(=O)N2CCC3(CC2)OCCO3)c1C
Cytochrome P450 3A4
  AC50: 22.4 µM (inconclusive)

## CC(/N=C/C1=C(O)OC(C)(C)OC1=O)C(=O)O (stereo not drawn)
[2]
  EC50: > 60 µM (not active)

## Cc1ccccc1SCC(=O)Nc1cc(C(F)(F)F)ccc1N1CCOCC1
[1]
  EC50: 3.94 µM (active)
[2]
  EC50: > 60 µM (not active)

## COc1ccc(S(=O)(=O)N2CCC(NC(=O)C(Cc3cccc(OC)c3OC)NC(C)=O)CC2)cc1 (stereo not drawn)
[3]
  EC50: > 195 µM (not active)

## Cc1ccc(CN2C(=O)c3ccccc3NC2c2cc(Br)ccc2O)cc1 (stereo not drawn)
Streptococcus
  EC50: 8.52 µM (active)
Streptokinase A
  EC50: 5 µM (active)
[4]
  EC50: 5.08 µM (active)

## CCOC(=O)c1c(-c2ccccc2)c2cc(OC)ccc2n1CCCN(C)C
[1]
  EC50: 0.653 µM (active)
[2]
  EC50: 16.3 µM (active)

## OCCCCNCc1ccc(OCc2ccc(Cl)cc2)cc1
[1]
  EC50: 2.39 µM (active)
[2]
  EC50: 10.6 µM (active)

## COc1cccc(COC(=O)c2ccc3c(=O)n4c(nc3c2)CCC4)c1OC
Streptococcus
  EC50: 34.1 µM (active)
Streptokinase A
  EC50: > 150 µM (not active)
[4]
  EC50: 10.8 µM (active)

## CC(C)(C)NC(=O)CSc1nc2ccc(Nc3nc(N4CCOCC4)nc(N4CCOCC4)n3)cc2s1
[1]
  EC50: 0.832 µM (active)
[2]
  EC50: > 30 µM (not active)

## CCn1ncc(CN2CCCC(CNC(=O)c3ccc(F)cc3)C2)c1C (stereo not drawn)
[1]
  EC50: 0.106 µM (active)
[2]
  EC50: > 60 µM (not active)

## Cc1[nH]c2ccccc2c1/C=N/Nc1ccccc1[N+](=O)[O-]
[1]
  EC50: 2.3 µM (active)
[2]
  EC50: > 60 µM (not active)

## N#CC1=C(N)SC(N)=C(C#N)C1c1c(Cl)cccc1Cl
Streptococcus
  EC50: > 150 µM (not active)
Streptokinase A
  EC50: 93.5 µM (active)
[4]
  EC50: 6.67 µM (active)

## O=C(CSc1nnc(NC(=O)c2cccc(Cl)c2)s1)NCC1CCCO1 (stereo not drawn)
Streptococcus
  EC50: > 150 µM (not active)
Streptokinase A
  EC50: > 150 µM (not active)
[4]
  EC50: > 150 µM (not active)

## CCCCN(C)S(=O)(=O)c1ccc(C(=O)N(CCN(C)C)c2nc3ccc(C)cc3s2)cc1
[1]
  EC50: 0.182 µM (active)
[2]
  EC50: > 60 µM (inconclusive)

## COC(=O)c1ccc(CSc2cc(C)c3cc(C)cc(C)c3n2)o1
Streptococcus
  EC50: > 150 µM (not active)
Streptokinase A
  EC50: 12.6 µM (active)
[4]
  EC50: 34.2 µM (active)

## COCCOC(=O)CC1=NC(=O)CS1
[3]
  EC50: > 195 µM (not active)

## CCOc1ccc(/C=N/Nc2cc(N3CCOCC3)nc(C)n2)c(O)c1
Streptococcus
  EC50: > 150 µM (not active)
Streptokinase A
  EC50: > 150 µM (not active)
[4]
  EC50: > 150 µM (not active)

## CCCCCCCc1nn2c(O)cc(=O)nc2s1
Streptococcus
  EC50: > 150 µM (not active)
Streptokinase A
  EC50: > 150 µM (not active)
[4]
  EC50: 10.9 µM (active)

## Cc1nc2cc([N+](=O)[O-])ccc2c(=O)n1-c1ccccc1[N+](=O)[O-]
[1]
  EC50: 1.91 µM (active)
[2]
  EC50: 19.1 µM (active)

## O=C(c1cc(C(F)(F)F)cc(C(F)(F)F)c1)N1CCC[C@@]2(CCN(c3ccccc3)C2)C1
Cytochrome P450 3A4
  AC50: 3.16 µM (inconclusive)

## Cc1cccc(N2CCN(C(=O)c3ccc4nc(N5CCCCC5)sc4c3)CC2)c1C
Streptococcus
  EC50: 140 µM (active)
Streptokinase A
  EC50: 14.6 µM (active)
[4]
  EC50: 13.8 µM (active)

## Cc1c2c(n3c(nc4ccccc43)c1C#N)N(CCCN(C)C)CC2
[1]
  EC50: 0.242 µM (active)
[2]
  EC50: > 60 µM (not active)

## CC(=O)OC[C@@H]1O[C@H](C/C=N\O[C@@H](C)CN2CCCc3nc(C)c(C)cc32)C=C[C@@H]1OC(C)=O
Cytochrome P450 3A4
  AC50: 3.98 µM (inconclusive)

— ChEMBL document CHEMBL1201862, “PubChem BioAssay data set” (2004)
